Like-named read-outs stand apart in the source and are kept apart here.
What was measured:
[1] = system: mammary carcinoma cells and mammary epithelial cells; assay: Cellular uptake assay, all cell lines together; type: cell-based, human and mouse; settings: 72 h, 20 μM
Experimental: (§1) Figure 1 Conjugation of PZ with DHA increases the cellular uptake and stability of PZ and DHA. The cells were treated with 20 μM of PZ, DHA or PZ-DHA and cultured for 72 h at 37 °C. Cells were harvested and washed thoroughly using cold PBS. Cells were lysed in cold acetone containing 0.05 mg/mL quercetin, and cell lysates were collected by centrifugation and analyzed by using UPLC-ESI-MS/MS. (A) mean % cellular uptake of PZ, DHA and PZ-DHA. (B) fold increase in intracellular PZ and DHA when conjugated. ANOVA multiple means statistical comparison method was performed and differences among means were compared using Tukey’s test; *p < 0.05. (MDA-MB-231 p = 0.008; MDA-MB-468 p = 0.01; 4T1 p = 0.02; MCF-7 p = 0.01; MCF-10A p = 0.0005).
(§2) Cells were seeded at a density of 3 × 10^5 cells (MDA-MB-231, MDA-MB-468, MCF-7, and MCF-10A) or 1 × 10^5 cells (4T1) /T-75 flask. The cells were cultured overnight to promote cell adhesion. Adherent cells were treated with a sub-cytotoxic concentration (20 μM) of PZ, DHA or PZ-DHA and cultured for 72 h at 37 °C. The supernatant was carefully removed, and cell monolayers were washed with cold PBS. Cells were harvested using TrypLE Express and washed thoroughly with cold PBS. The cell pellet was resuspended in 3 mL of cold acetone containing 0.05 mg/mL quercetin as the internal standard, and incubated overnight at 4 °C. Cell lysates were collected by centrifugation at 14,000×g for 15 min at 4 °C and samples were concentrated by evaporating acetone under a stream of nitrogen gas. Dry pellets were reconstituted in methanol and filtered. The sample was analyzed using a UPLC/ESI/MS system. The percentage cell uptake of the total dose was quantified using standard curves of PZ (R^2 = 0.99), DHA (R^2 = 0.98) or PZ-DHA (R^2 = 0.99) made in methanol.
(§3) PZ-DHA and/or PZ-DHA metabolites in malignant/non-malignant epithelial cell lysates, in vitro microsome enzyme reaction mixtures, and mouse serum aliquots were determined using UPLC-ESI–MS/MS instrument (Waters Limited, Mississauga, ON, Canada). All mass spectroscopic analyses were performed using mass scan (full-scan, identification of unknowns) and single ion monitoring (SIM; quantification of PZ, DHA, PZ-DHA, and quercetin) modes of a Waters H-class UPLC separations module coupled with a Micromass Quattro micro API MS/MS system and MassLynx V4.0 control software. An Allure biphenyl column (100 mm × 2.1 mm, 1.8 μm, Restek Pure Chromatography, Bellefonte, PA, USA) and a flow rate of 0.3 mL/min were employed. ESI- mode with a capillary voltage of 3000 V and a nebulizer gas (N2) temperature of 375 °C were used. A volume of 2 µL sample was injected.

[2] = Tissue distribution of PZ-DHA and metabolites after intraperitoneal injection; type: in vivo, Balb/c female mice; settings: female, Balb/c, mouse, intraperitoneal, 100 mg/kg
Experimental: Figure 5 PZ-DHA and metabolites were detected in various organs of PZ-DHA-treated Balb/c female mice. PZ-DHA (100 mg/kg) was administered by intraperitoneal injection to Balb/c female mice and liver, lungs, kidneys, spleen and brain were harvested. Organs were homogenized and PZ-DHA in (A) liver, kidneys, lungs, spleen, and brain was identified and quantified using a calibration curve. The abundance of (B) 4,4′,6′-tri-O-methyl-phloridzin docosahexaenoate in liver, kidneys, lungs, and serum) and (C) phloridzin docosahexaenoate-4,4′-di-O-sulphide in the liver was determined in PZ-DHA equivalence.
Pharmacokinetic parameters and in vivo generation of PZ-DHA metabolites were studied using Balb/c female mice. Mice were randomly divided into six groups (n = 4/group) and PZ-DHA (100 mg/kg) was administered by intraperitoneal injection. For each mouse, a single blood collection was performed by cardiac puncture at one of six different time points (t = 15, 30, 60, 90, 120, and 240 min). At the end of blood collection, mice were euthanized by cervical dislocation and organs (liver, lungs, kidneys, spleen, and brain) were harvested. Blood samples were allowed to clot by leaving undisturbed at room temperature for 1 h, and serum was separated by centrifuging at 2000×g for 10 min at 4 °C. The serum was carefully removed and stored on ice until further processing. Serum proteins were precipitated by incubating an aliquot of serum with a mixture of acetonitrile:acetone (80:20) containing 0.1 mg/mL quercetin (internal standard) at 4 °C overnight. The supernatant was separated by centrifuging at 14,000×g for 10 min at 4 °C. Excess solvent was evaporated using nitrogen flush and mixed with methanol and filtered. PZ-DHA-metabolites in the filtrate were identified using a UPLC-ESI–MS/MS (Waters Limited, Mississauga, ON, Canada). Organs were homogenized in PBS (1:5 w/v). Supernatants were collected by centrifugation at 14,000 × g for 15 min at 4 °C. Proteins were precipitated by incubating in acetonitrile:acetone (80:20) containing 0.1 mg/mL quercetin (internal standard) at 4 °C overnight. Supernatants were treated as explained above, and PZ-DHA and/or PZ-DHA-metabolites were identified.

MCF-7 cells = assay: Cellular uptake assay (UPLC-ESI-MS/MS of cell lysates); type: cell-based, human; settings: 20 μM, 72 h
Experimental: as §1
as §2, with “The cell pellet was resuspended in 3 mL of cold acetone containing 0.05 mg/mL quercetin as the internal standard, and incubated overnight at 4 °C. Cell lysates were collected by centrifugation at 14,000×g for 15 min at 4 °C and samples were concentrated by evaporating acetone under a stream of nitrogen gas. Dry pellets were reconstituted in methanol and filtered.” left out
as §3, with “An Allure biphenyl column (100 mm × 2.1 mm, 1.8 μm, Restek Pure Chromatography, Bellefonte, PA, USA) and a flow rate of 0.3 mL/min were employed. ESI- mode with a capillary voltage of 3000 V and a nebulizer gas (N2) temperature of 375 °C were used. A volume of 2 µL sample was injected.” left out

MCF-10A cells = assay: as above; type: cell-based, human; settings: 20 μM, 72 h
Experimental: as §1
as §2, with “The cell pellet was resuspended in 3 mL of cold acetone containing 0.05 mg/mL quercetin as the internal standard, and incubated overnight at 4 °C. Cell lysates were collected by centrifugation at 14,000×g for 15 min at 4 °C and samples were concentrated by evaporating acetone under a stream of nitrogen gas. Dry pellets were reconstituted in methanol and filtered.” left out
as §3, with “An Allure biphenyl column (100 mm × 2.1 mm, 1.8 μm, Restek Pure Chromatography, Bellefonte, PA, USA) and a flow rate of 0.3 mL/min were employed. ESI- mode with a capillary voltage of 3000 V and a nebulizer gas (N2) temperature of 375 °C were used. A volume of 2 µL sample was injected.” left out

MDA-MB-468 cells = assay: as above; type: cell-based, human; settings: 20 μM, 72 h
Experimental: as §1
as §2, with “The cell pellet was resuspended in 3 mL of cold acetone containing 0.05 mg/mL quercetin as the internal standard, and incubated overnight at 4 °C. Cell lysates were collected by centrifugation at 14,000×g for 15 min at 4 °C and samples were concentrated by evaporating acetone under a stream of nitrogen gas. Dry pellets were reconstituted in methanol and filtered.” left out
as §3, with “An Allure biphenyl column (100 mm × 2.1 mm, 1.8 μm, Restek Pure Chromatography, Bellefonte, PA, USA) and a flow rate of 0.3 mL/min were employed. ESI- mode with a capillary voltage of 3000 V and a nebulizer gas (N2) temperature of 375 °C were used. A volume of 2 µL sample was injected.” left out

[3] = design: method as in PMID 31473253; settings: 100 mg/kg body weight via intraperitoneal injections; cited from earlier work
[4] = brain/serum, read-out: Tissue/serum ratio of PZ-DHA (Mean ± SD) Brain/serum
[5] = kidneys/serum, read-out: Tissue/serum ratio of PZ-DHA (Mean ± SD) Kidneys/serum
[6] = liver/serum, read-out: Tissue/serum ratio of PZ-DHA (Mean ± SD) Liver/serum
[7] = lungs/serum, read-out: Tissue/serum ratio of PZ-DHA (Mean ± SD) Lungs/serum
[8] = spleen/serum, read-out: Tissue/serum ratio of PZ-DHA (Mean ± SD) Spleen/serum

CC/C=C\C/C=C\C/C=C\C/C=C\C/C=C\C/C=C\CCC(=O)OC[C@H]1O[C@@H](Oc2cc(O)cc(O)c2C(=O)CCc2ccc(O)cc2)[C@H](O)[C@@H](O)[C@@H]1O [PZ-DHA, phloridzin docosahexaenoate]
abundance in cells throughout the experimental period [1]: stable abundance | cellular uptake (as a % of the dose), in words ([1]; all cell lines): significantly higher than that of PZ or DHA | Kp at 15 min [2, 4]: 0.51 ± 0.17 | Kp at 30 min [2, 4]: 0.64 ± 0.11 | Kp at 60 min [2, 4]: 0.95 ± 0.68 | Kp at 90 min [2, 4]: 1.01 ± 0.19 | Kp at 120 min [2, 4]: 1.31 ± 0.67 | Kp at 240 min [2, 4]: 1.94 ± 0.75 | Kp at 15 min [2, 5]: 0.66 ± 0.03 | Kp at 30 min [2, 5]: 1.29 ± 0.22 | Kp at 60 min [2, 5]: 0.81 ± 0.34 | Kp at 90 min [2, 5]: 0.89 ± 0.26 | Kp at 120 min [2, 5]: 2.71 ± 1.41 | Kp at 240 min [2, 5]: 2.71 ± 1.08 | Kp at 15 min [2, 6]: 0.14 ± 0.06 | Kp at 30 min [2, 6]: 0.16 ± 0.08 | Kp at 60 min [2, 6]: 4.68 ± 2.02 | Kp at 90 min [2, 6]: 2.69 ± 2.17 | Kp at 120 min [2, 6]: 1.03 ± 0.73 | Kp at 240 min [2, 6]: 0.99 ± 0.23 | Kp at 15 min [2, 7]: 3.33 ± 1.51 | Kp at 30 min [2, 7]: 2.04 ± 1.09 | Kp at 60 min [2, 7]: 1.05 ± 0.014 | Kp at 90 min [2, 7]: 3.51 ± 2.44 | Kp at 120 min [2, 7]: 3.82 ± 1.74 | Kp at 240 min [2, 7]: 4.97 ± 1.37 | Kp at 15 min [2, 8]: 3.29 ± 1.56 | Kp at 30 min [2, 8]: 3.17 ± 0.72 | Kp at 60 min [2, 8]: 4.18 ± 1.01 | Kp at 90 min [2, 8]: 5.24 ± 1.75 | Kp at 120 min [2, 8]: 10.9 ± 8.42 | Kp at 240 min [2, 8]: 16.1 ± 5.98 | cellular uptake (as a % of the dose) (MCF-7 cells): 21% | PZ-DHA uptake and fold-increase in intracellular PZ and DHA versus the malignant cells (MCF-10A cells): similar | cellular uptake (as a % of the dose) (MDA-MB-468 cells): 50% | liver or kidney toxicity [3]: does not show liver or kidney toxicity

— PMC7721897, “Metabolism and pharmacokinetics of a novel polyphenol fatty acid ester phloridzin docosahexaenoate in Balb/c female mice” (Scientific Reports, 2020)
